Laboratory results as given in patent US20230167127A1, “COMPOUNDS AND THEIR USE IN THE TREATMENT OF BACTERIAL INFECTION” (Hoffmann-La Roche Inc., priority 2020, published 2023).
Structures can show the parent of a compound that is named as a salt.

System: Escherichia coli ATCC 25922
Test: 50% growth inhibitory concentration (IC50) determination, Iso-Sensitest broth dilution
Type: cell-based
Settings: Escherichia coli, ATCC25922, 16 h, strain Escherichia coli ATCC 25922; 10-point broth dilution, optical density at 600 nm over 16 h; read-out: Escherichia coli growth inhibition IC50
Summary of the method: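 Growth was tracked as optical density at 600 nm every 20 minutes for 16 h at 35±2° C. Compounds from DMSO stocks were serially diluted twofold over 10 points (e.g. 50–0.097 μM final) in Iso-Sensitest broth. Inhibition computed in log-phase growth to give IC50.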

Structure (SMILES) | IC50
CNC(=O)C(N)COc1cc(F)c2c(c1)CC(CNCCC1CN(c3ccc4c(n3)NC(=O)CO4)C(=O)O1)C2 (centres unmarked) [Example 255, 2-Amino-3-[[7-fluoro-2-[[2-[2-oxo-3-(3-oxo-4H-pyrido[3,2-b][1,4]oxazin-6-yl)-1,3-oxazolidin-5-yl]ethylamino]methyl]-2,3-dihydro-1H-inden-5-yl]oxy]-N-methylpropanamide; formic acid] | 180 nM
CONC(=O)COc1cc(F)c2c(c1)CC(CNCCC1CN(c3cnc4c(n3)NC(=O)CO4)C(=O)O1)C2 (centres unmarked) [Example 311, 2-[[7-Fluoro-2-[[2-[2-oxo-3-(3-oxo-4H-pyrazino[2,3-b][1,4]oxazin-6-yl)-1,3-oxazolidin-5-yl]ethylamino]methyl]-2,3-dihydro-1H-inden-5-yl]oxy]-N-methoxyacetamide; formic acid] | 382 nM
N#Cc1c(OCC2(N)CC2)ccc2c1CC(CNCCC1CN(c3ccc4c(n3)NC(=O)CO4)C(=O)O1)C2 (centres unmarked) [Example 124, 5-[(1-aminocyclopropyl)methoxy]-2-[[2-[2-oxo-3-(3-oxo-4H-pyrido[3,2-b][1,4]oxazin-6-yl)-1,3-oxazolidin-5-yl]ethylamino]methyl]-2,3-dihydro-1H-indene-4-carbonitrile hydrochloride] | < 97.7 nM
CNC(=O)COc1cc(F)c2c(c1)CC(CNCCC1CN(c3cnc4c(n3)NC(=O)CO4)C(=O)O1)C2 (centres unmarked) [Example 310, 2-[[7-fluoro-2-[[2-[2-oxo-3-(3-oxo-4H-pyrazino[2,3-b][1,4]oxazin-6-yl)-1,3-oxazolidin-5-yl]ethylamino]methyl]-2,3-dihydro-1H-inden-5-yl]oxy]-N-methylacetamide; formic acid] | 180 nM
Cc1nnc(C)c2c1CC(CNCCC1CN(c3ccc4c(n3)NC(=O)CS4)C(=O)O1)C2 (centres unmarked) [Example 285, 5-[2-[(1,4-dimethyl-6,7-dihydro-5H-cyclopenta[d]pyridazin-6-yl)methylamino]ethyl]-3-(3-oxo-4H-pyrido[3,2-b][1,4]thiazin-6-yl)-1,3-oxazolidin-2-one] | 925 nM
NC1c2cccc(Cl)c2CC1CCNCC1CN(c2cnc3c(n2)NC(=O)CO3)C(=O)O1 (racemic) [Example 266, 6-[2-Oxo-5-[[2-[rac-1,2-trans-1-amino-4-chloro-2,3-dihydro-1H-inden-2-yl]ethylamino]methyl]-1,3-oxazolidin-3-yl]-4H-pyrazino[2,3-b][1,4]oxazin-3-one] | 206 nM
Cc1ncc(Cl)c2c1CC(CNCCC1CN(c3ccc4c(n3)NC(=O)CS4)C(=O)O1)C2N (racemic) [Example 264, 3-(3-Oxo-4H-pyrido[3,2-b][1,4]thiazin-6-yl)-5-[2-[[rac-5,6-trans-5-amino-4-chloro-1-methyl-6,7-dihydro-5H-cyclopenta[c]pyridin-6-yl]methylamino]ethyl]-1,3-oxazolidin-2-one] | < 97.7 nM
CN1CCCC1COc1ccc2c(c1C#N)CC(CNCCC1CN(c3ccc4c(n3)NC(=O)CO4)C(=O)O1)C2 (centres unmarked) [Example 52, 5-[(1-methylpyrrolidin-2-yl)methoxy]-2-[[2-[2-oxo-3-(3-oxo-4H-pyrido[3,2-b][1,4]oxazin-6-yl)-1,3-oxazolidin-5-yl]ethylamino]methyl]-2,3-dihydro-1H-indene-4-carbonitrile; formic acid] | < 97.7 nM
N#Cc1c(OC2COC2)ccc2c1CC(CNCCC1CN(c3ccc4c(n3)NC(=O)CO4)C(=O)O1)C2 (centres unmarked) [Example 63, 5-(oxetan-3-yloxy)-2-[[2-[2-oxo-3-(3-oxo-4H-pyrido[3,2-b][1,4]oxazin-6-yl)-1,3-oxazolidin-5-yl]ethylamino]methyl]-2,3-dihydro-1H-indene-4-carbonitrile] | < 97.7 nM
N#Cc1cc(OCc2cn[nH]c2)cc2c1CC(CNCCC1CN(c3cnc4c(n3)NC(=O)CO4)C(=O)O1)C2 (centres unmarked) [Example 405, 2-[[2-[2-oxo-3-(3-oxo-4H-pyrazino[2,3-b][1,4]oxazin-6-yl)-1,3-oxazolidin-5-yl]ethylamino]methyl]-6-(1H-pyrazol-4-ylmethoxy)-2,3-dihydro-1H-indene-4-carbonitrile; formic acid] | < 97.7 nM
O=C1COc2ccc(N3CC(CCNCC4Cc5cccc(Cl)c5C4)OC3=O)nc2N1 (centres unmarked) [Example 1, 6-[5-[2-[(4-Chloro-2,3-dihydro-1H-inden-2-yl)methylamino]ethyl]-2-oxo-1,3-oxazolidin-3-yl]-4H-pyrido[3,2-b][1,4]oxazin-3-one; formic acid] | < 97.7 nM
CNC(=O)COc1cc(C)c2c(c1C)CC(CNCCC1CN(c3ccc4c(n3)NC(=O)CS4)C(=O)O1)C2 (centres unmarked) [Example 114, 2-[[4,7-dimethyl-2-[[2-[2-oxo-3-(3-oxo-4H-pyrido[3,2-b][1,4]thiazin-6-yl)-1,3-oxazolidin-5-yl]ethylamino]methyl]-2,3-dihydro-1H-inden-5-yl]oxy]-N-methylacetamide] | 217 nM
O=C1COc2ccc(N3CC(CCNC4Cc5cccc(Cl)c5C4)OC3=O)nc2N1 (centres unmarked) [Example 3, 6-[5-[2-[(4-chloro-2,3-dihydro-1H-inden-2-yl)amino]ethyl]-2-oxo-1,3-oxazolidin-3-yl]-4H-pyrido[3,2-b][1,4]oxazin-3-one hydrochloride] | 940 nM
Cc1nccc2c1CC(CNCCC1CN(c3ccc4c(n3)NC(=O)CO4)C(=O)O1)C2N (racemic) [Example 130, 6-[2-oxo-5-[2-[(rac-5,6-trans-5-amino-1-methyl-6,7-dihydro-5H-cyclopenta[c]pyridin-6-yl)methylamino]ethyl]-1,3-oxazolidin-3-yl]-4H-pyrido[3,2-b][1,4]oxazin-3-one; formic acid] | 868 nM
Cc1c(OCC2CCN2)ncc2c1CC(CNCCC1CN(c3ccc4c(n3)NC(=O)CO4)C(=O)O1)C2 (stereo in doubt) [Example 219, 6-[5-[2-[[4-methyl-3-[[(2R)-azetidin-2-yl]methoxy]-6,7-dihydro-5H-cyclopenta[c]pyridin-6-yl]methylamino]ethyl]-2-oxo-1,3-oxazolidin-3-yl]-4H-pyrido[3,2-b][1,4]oxazin-3-one] | 378 nM
Cc1nccc2c1CC(NCCCC1CN(c3ccc4c(n3)NC(=O)CO4)C(=O)O1)C2 (centres unmarked) [Example 94, 6-[5-[3-[(1-methyl-6,7-dihydro-5H-cyclopenta[c]pyridin-6-yl)amino]propyl]-2-oxo-1,3-oxazolidin-3-yl]-4H-pyrido[3,2-b][1,4]oxazin-3-one] | 485 nM
O=C1COc2ccc(N3CC(CCNCC4Cc5cccc(Cl)c5C4)OC3=O)cc2N1 (centres unmarked) [Example 15, 6-[5-[2-[(4-chloro-2,3-dihydro-1H-inden-2-yl)methylamino]ethyl]-2-oxo-1,3-oxazolidin-3-yl]-4H-1,4-benzoxazin-3-one; formic acid] | 188 nM
Cc1c(F)cnc2c1CC(CNCCC1CN(c3ccc4c(n3)NC(=O)CO4)C(=O)O1)C2 (centres unmarked) [Example 300, 6-[5-[2-[(3-fluoro-4-methyl-6,7-dihydro-5H-cyclopenta[b]pyridin-6-yl)methylamino]ethyl]-2-oxo-1,3-oxazolidin-3-yl]-4H-pyrido[3,2-b][1,4]oxazin-3-one] | 156 nM
O=C1COc2ccc(N3CC(CCCNC4Cc5ccc(Cl)cc5C4)OC3=O)nc2N1 (centres unmarked) [Example 10, 6-[5-[3-[(5-chloro-2,3-dihydro-1H-inden-2-yl)amino]propyl]-2-oxo-1,3-oxazolidin-3-yl]-4H-pyrido[3,2-b][1,4]oxazin-3-one; formic acid] | 447 nM
O=C1COc2ncc(N3CC(CCNCC4Cc5cc(OCCn6nccn6)cc(F)c5C4)OC3=O)nc2N1 (centres unmarked) [Example 343, 6-[5-[2-[[4-fluoro-6-(2-(triazol-2-yl)ethoxy]-2,3-dihydro-1H-inden-2-yl]methylamino]ethyl]-2-oxo-1,3-oxazolidin-3-yl]-4H-pyrazino[2,3-b][1,4]oxazin-3-one; formic acid] | 617 nM
Cc1nc(N(C)C)cc2c1CC(CNCCC1CN(c3ccc4c(n3)NC(=O)CO4)C(=O)O1)C2 (centres unmarked) [Example 419, 6-[5-[2-[[3-(Dimethylamino)-1-methyl-6,7-dihydro-5H-cyclopenta[c]pyridin-6-yl]methylamino]ethyl]-2-oxo-1,3-oxazolidin-3-yl]-4H-pyrido[3,2-b][1,4]oxazin-3-one] | 225 nM
CNC(=O)COc1ccc2c(c1C#N)CC(CNCCC1CN(c3ccc4c(n3)NC(=O)CO4)C(=O)O1)C2 (centres unmarked) [Example 48, 2-[[4-cyano-2-[[2-[2-oxo-3-(3-oxo-4H-pyrido[3,2-b][1,4]oxazin-6-yl)-1,3-oxazolidin-5-yl]ethylamino]methyl]-2,3-dihydro-1H-inden-5-yl]oxy]-N-methylacetamide] | 106 nM
NC1(COc2cc(Cl)c3c(c2)CC(NCCCC2CN(c4ccc5c(n4)NC(=O)CO5)C(=O)O2)C3)CC1 (centres unmarked) [Example 180, 6-[5-[3-[[6-[(1-aminocyclopropyl)methoxy]-4-chloro-2,3-dihydro-1H-inden-2-yl]amino]propyl]-2-oxo-1,3-oxazolidin-3-yl]-4H-pyrido[3,2-b][1,4]oxazin-3-one] | < 97.7 nM
O=C1COc2ncc(N3CC(CCNCC4Cc5cc(OCc6cc[nH]n6)cc(F)c5C4)OC3=O)nc2N1 (centres unmarked) [Example 320, 6-[5-[2-[[4-Fluoro-6-(1H-pyrazol-3-ylmethoxy)-2,3-dihydro-1H-inden-2-yl]methylamino]ethyl]-2-oxo-1,3-oxazolidin-3-yl]-4H-pyrazino[2,3-b][1,4]oxazin-3-one; formic acid] | 202 nM
NC1(COc2cc(F)c3c(c2)CC(CNCCC2CN(c4ccc5c(n4)NC(=O)CO5)C(=O)O2)C3)COC1 (centres unmarked) [Example 162, 6-[5-[2-[[6-[(3-aminooxetan-3-yl)methoxy]-4-fluoro-2,3-dihydro-1H-inden-2-yl]methylamino]ethyl]-2-oxo-1,3-oxazolidin-3-yl]-4H-pyrido[3,2-b][1,4]oxazin-3-one; formic acid] | 195 nM
NC1c2cccc(F)c2CC1CNCCC1CN(c2cnc3c(n2)NC(=O)CO3)C(=O)O1 (racemic) [Example 164, 6-[5-[2-[(rac-1,2-trans-1-amino-4-fluoro-2,3-dihydro-1H-inden-2-yl)methylamino]ethyl]-2-oxo-1,3-oxazolidin-3-yl]-4H-pyrazino[2,3-b][1,4]oxazin-3-one; formic acid] | < 97.7 nM
